Data on one sequence can be found in article PMC12700550, “DLL4^+ neutrophils promote Notch1-mediated endothelial PANoptosis to exacerbate acute lung injury in sepsis” (The Journal of Clinical Investigation, 2025).

The subject of test [1] is C57BL/6 mice, CLP sepsis. Description: Lung water content, CLP mice. In kind it is in vivo, mouse. To be noted: 20 h; for lung water content (wet weight – dry weight)/wet weight (Figure 6K): 10 mg/kg NDI, individual mice. How it is done: Sepsis was induced in mice by cecal ligation and puncture (CLP) as described previously ([45], [46]). Mice were anesthetized with isoflurane to a surgical plane and placed in a supine position. CLP was performed through a midline laparotomy. The abdomen was shaved and disinfected. Through a 2 cm midline incision, the cecum was exposed and then ligated with a 4-0 silk suture 1 cm proximal from the distal cecal extremity. […] A small amount of cecal content was extruded through both holes, and the ligated cecum was returned to the peritoneal cavity. The wound was closed in layers. […] A small amount of cecal content was extruded. […] Vehicle groups received an equivalent volume of PBS, while treatment groups received NDI 10 mg/kg in […] PBS via retro-orbital injection after CLP. This dose was chosen primarily on the basis of our laboratory’s prior experience, we have consistently used this dose in mouse CLP models with reproducible efficacy and without observable toxicity ([39], [44]). Sham-operated animals underwent a laparotomy without CLP. After closure, the mice received a subcutaneous injection of 0.5 mL of normal saline to overcome surgery-induced dehydration. […] All mice were subcutaneously injected with a single dose of 0.1 mg/kg buprenorphine after CLP. Lung vascular leakage was quantified using the Evans blue dye–labeled (EBD-labeled) albumin extravasation assay ([48]). […] Sigma-Aldrich) via retro-orbital injection. At 1 hour after EBD administration (4.5 hours after the end of resuscitation), the lungs were perfused with heparinized (1 U/mL) normal saline via right ventricle injection to remove intravascular dye. The whole lung was dehydrated for 48 hours at 60°C, immersed in formamide (1 mL/g wet weight; Sigma-Aldrich) at 37°C for 48 hours, and centrifuged at 5,000g for 30 minutes. The amount of extracted EBD in the supernatant was quantified by spectrophotometry. The concentration of extravasated EBD-albumin in lung homogenates was expressed as nanograms EBD per milligram of dry lung tissue. Lung water content was calculated as (wet weight – dry weight)/wet weight %.

Test [2] concerns the target T1, rmNotch1 (Mus musculus, UniProt Q01705).
T1 construct: purchased R&D Systems 5267-TK (rmNotch1); 1389-D4-050/CF (rmDLL4)
In words: BIAcore assay (surface plasmon resonance), rmDLL4 to immobilized rmNotch1. The note with it: 1 μg/mL NDI. In kind it is binding, murine. How it is done: To determine rmDLL4’s direct interaction with rmNotch1, surface plasmon resonance (OpenSPR, Nicoya) was performed. High-sensitivity nitrilotriacetic acid (HS-NTA) sensors were used. Binding reactions were performed in running buffer (PBS, 0.005% P20, pH 7.4). The HS-NTA sensor was first cleaned by injection with 10 mM HCl (150 μL) followed by injection of 150 μL of 350 mM EDTA. […] For the effect of NDI efficacy on rmDLL4 binding to rmNotch1, the same HS-NTA sensor was used. rmDLL4 at all the concentrations used for binding with rmNotch1 was preincubated with 1 μg/mL NDI for 30 minutes at room temperature, and then the complexes were injected to channels 1 and 2. Binding reactions were carried out with the same running buffer at a flow rate of 40 μL/min at 20°C. Channel 1 was used as a control to evaluate nonspecific binding. The real-time interaction data were analyzed by Trace Drawer (Nicoya). The signals from channel 1 were subtracted from channel 2 coated with the ligand for all samples. Data were globally fitted for 1:1 binding (one-to-one model).
A general note: SPR reads the build-up and loss of mass on a sensor chip optically.

Test [3] relates to TNF-α. In words: Lung TNF-α mRNA, CLP mice. To be noted: 20 h; for lung TNF-α mRNA (Figure 6F): 10 mg/kg NDI, vs sham, individual mice. In kind it is in vivo, mouse. How it is done:
Sepsis was induced in mice by cecal ligation and puncture (CLP) as described previously ([45], [46]). Mice were anesthetized with isoflurane to a surgical plane and placed in a supine position. CLP was performed through a midline laparotomy. The abdomen was shaved and disinfected. Through a 2 cm midline incision, the cecum was exposed and then ligated with a 4-0 silk suture 1 cm proximal from the distal cecal extremity. For 20-hour CLP experiments, the cecum was punctured twice with a 22-gauge needle. A small amount of cecal content was extruded through both holes, and the ligated cecum was returned to the peritoneal cavity. The wound was closed in layers. For 10-day sepsis survival studies, the cecum was punctured once with a 22-gauge needle. A small amount of cecal content was extruded. Mice were allocated to the vehicle and adoptive transfer of DLL4^+ neutrophils or DLL4^– neutrophils groups. Adoptive transfer mice received a retro-orbital injection of 1 × 10^6 cells per mouse DLL4^+ neutrophils or DLL4^– neutrophils in […] phosphate-buffered saline (PBS) immediately after abdominal closure in both the 20-hour experiments and the survival study. Vehicle groups received an equivalent volume of PBS, while treatment groups received NDI 10 mg/kg in […] PBS via retro-orbital injection after CLP. This dose was chosen primarily on the basis of our laboratory’s prior experience, we have consistently used this dose in mouse CLP models with reproducible efficacy and without observable toxicity ([39], [44]). Sham-operated animals underwent a laparotomy without CLP. After closure, the mice received a subcutaneous injection of 0.5 mL of normal saline to overcome surgery-induced dehydration. For 20-hour experiments, animals were not injected with antibiotics; however, for survival studies, animals were given 0.5 mg per kg body weight imipenem (lot 4D21K05, WG Critical Care LLC) subcutaneously in 0.5 mL saline once at the end of CLP. All mice were subcutaneously injected with a single dose of 0.1 mg/kg buprenorphine after CLP. […]

The mark [4] stands for this setting: DLL4^+ neutrophil-injected CLP mice, 10 mg/kg.

“And” between values parts separate entries of the source, which are not always exact repeats. Equal entries are not always repeated.

T1 sequence (Q9JI71 28-525 partner limits assumed): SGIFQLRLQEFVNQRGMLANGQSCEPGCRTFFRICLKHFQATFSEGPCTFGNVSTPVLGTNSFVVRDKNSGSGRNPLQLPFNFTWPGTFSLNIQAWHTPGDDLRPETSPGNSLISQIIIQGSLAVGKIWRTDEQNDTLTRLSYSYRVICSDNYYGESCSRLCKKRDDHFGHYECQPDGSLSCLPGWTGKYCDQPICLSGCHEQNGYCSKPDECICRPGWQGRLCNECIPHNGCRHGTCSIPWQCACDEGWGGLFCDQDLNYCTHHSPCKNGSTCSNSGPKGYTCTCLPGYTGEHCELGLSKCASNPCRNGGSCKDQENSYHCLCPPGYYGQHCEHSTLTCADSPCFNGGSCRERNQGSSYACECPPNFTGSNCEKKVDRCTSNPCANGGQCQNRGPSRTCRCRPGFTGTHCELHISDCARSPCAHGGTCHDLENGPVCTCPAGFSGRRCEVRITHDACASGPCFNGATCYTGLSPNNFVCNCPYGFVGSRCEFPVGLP
T1 sequence (Q01705 with tags, fused parts or gaps limits assumed): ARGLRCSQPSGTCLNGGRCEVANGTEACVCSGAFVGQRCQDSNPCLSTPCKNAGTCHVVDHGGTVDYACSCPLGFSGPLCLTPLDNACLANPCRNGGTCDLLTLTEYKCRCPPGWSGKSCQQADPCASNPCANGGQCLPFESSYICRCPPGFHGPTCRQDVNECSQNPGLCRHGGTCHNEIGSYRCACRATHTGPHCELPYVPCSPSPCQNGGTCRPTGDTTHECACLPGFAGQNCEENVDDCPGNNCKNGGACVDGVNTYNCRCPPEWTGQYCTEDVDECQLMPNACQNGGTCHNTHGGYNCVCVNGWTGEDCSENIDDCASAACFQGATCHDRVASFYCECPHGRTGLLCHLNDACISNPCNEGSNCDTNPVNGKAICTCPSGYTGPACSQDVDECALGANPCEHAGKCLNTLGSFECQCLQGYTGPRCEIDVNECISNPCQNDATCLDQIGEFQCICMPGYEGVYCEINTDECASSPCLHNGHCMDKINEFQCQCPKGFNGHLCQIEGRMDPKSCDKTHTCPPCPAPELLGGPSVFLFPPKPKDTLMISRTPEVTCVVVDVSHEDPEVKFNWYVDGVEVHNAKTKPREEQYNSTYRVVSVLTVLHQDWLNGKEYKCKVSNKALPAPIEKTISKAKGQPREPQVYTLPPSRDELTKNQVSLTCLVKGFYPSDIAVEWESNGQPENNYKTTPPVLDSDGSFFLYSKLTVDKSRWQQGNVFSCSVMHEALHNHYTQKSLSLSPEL

Consider ECAGSPCHNGGTCEDGI [NDI], for which, in test [1] (setting [4]), the “effect on lung water content” value is “significantly attenuated these effects, reducing both lung water content and Evans blue dye content”. For the same sequence, the “lung water content (wet weight – dry weight)/wet weight (Figure 6K)” value is 71.922% and 71.5282% and 71.1472% and 70.6857% and 70.3749% and 72.6514% and 72.546% and 71.2677% and 69.0684% and 72.1189% and 71.6599% and 71.2762% in test [1] (DLL4^+ neutrophils + CLP); 69.6732% and 70.471% and 69.6655% and 68.9338% and 68.9855% and 70.575% and 70.9924% and 68.7155% and 69.153% in test [1] (DLL4^– neutrophils + CLP). For the same sequence, the “effect on Notch1-DLL4 interaction” value in test [2] is recorded as “significantly disrupted Notch1-DLL4 interaction”. Besides, the “effect on lung TNF-α mRNA” value in test [3] (setting [4]) was “significantly decreased the mRNA expression of TNF-α, IL-6, and KC in lung tissues”. For the same sequence, the “lung TNF-α mRNA (Figure 6F)” value is 4.255 fold change and 2.291 fold change and 5.674 fold change and 4.568 fold change and 3.143 fold change and 2.408 fold change and 0.5968 fold change and 4.125 fold change and 0.8652 fold change and 4.064 fold change and 0.4766 fold change and 9.1932 fold change and 5.227 fold change and 8.424 fold change in test [3] (DLL4^+ neutrophils + CLP); 8.678 fold change and 9.157 fold change and 5.574 fold change and 9.371 fold change and 6.524 fold change and 4.342 fold change and 3.267 fold change and 5.109 fold change and 7.731 fold change in test [3] (DLL4^– neutrophils + CLP).
